Measurements: US7842683B2, “Neurotherapeutic compositions and method” (Revaax Pharmaceuticals, LLC, priority 1999, dated 2010)
Where two headings read alike, the source gives them in different places.

How the values were obtained:
Male Wistar rats = test: Elevated plus-maze (anxiolytic activity); assay type: in vivo, rat
From the text: (§1) The elevated plus-maze was developed for the detection of anxiolytic and anxiogenic drug effects in the rat (Pellow et al., 1985). The method has been validated behaviorally, physiologically, and pharmacologically. The plus-maze consists of two open arms and two enclosed arms. […] Conversely, anxiogenic compounds like yohimbin or amphetamines reduce open arm entries and time spent in the open arms.
Male Wistar rats weighing 250-300 g were group housed in a normal 12:12 light-dark cycle light on at 0800 hr and provide food and water ad libitum. The plus-maze consisted of two open arms, 50×10 cm, and two enclosed arms 50×10×40 cm with an open roof, arranged such that the two open arms were opposite to each other. The maze was elevated to a height of 50 cm.
Eight animals were tested in the plus-maze 90 min following IP injection with 50 μg/kg Mox and saline vehicle. The order of treatments was counter balanced with at least 48 hrs between injections. At the start of the experiment the animal was place in the center of the plus maze facing the closed arm. Over a five min observation period, animals were scored for the latency to enter the closed arm, time spent in the closed arm and the number of open arm entries following the first occupation of the closed arm (FIG. 7).
Because Mox and CDP have different bioavailability profiles, e.g. brain penetrance, their CNS activity could not be compared by giving systemic injections of equimolar concentrations of each drug. Instead it was necessary to give both drugs directly into the cerebroventricular system to by pass the blood brain barrier. Animals were anesthetized with sodium pentobarbital (50 mg/kg), implanted with microinjection guide cannulae aimed at the lateral ventricle and allowed to recover for two days before testing. To groups of six animals each were tested with Mox or CDP. Each animals received a injection of drug and 0.9% NaCl vehicle on two separate days. The order of injections was counterbalanced and separated by two days. Both Mox and CDP were prepared in 0.9% NaCl at a concentration of 1 mM. All injections were given in a volume of 2 ul over 10 secs in fully conscious, restrained animals. Sixty min later animals were tested in the plus-maze for a 3 min observation period and scored for behaviors as noted previously.
as §1, with “screening” for “the detection of”
Male Wistar rats weighing 250-300 g were group housed in a normal 12:12 light-dark cycle with light on at 0800 hr and provided food and water ad libitum. The plus-maze consisted of two open arms, 50 cm long, 10 cm wide, with walls 40 cm high made of clear Plexiglas. The two closed arms had the same dimensions but included a roof. The Plexiglas for the closed arms was painted black. Each pair of arms was arranged opposite to each other to form the plus-maze. The maze was elevated to a height of 50 cm. Eighteen animals were tested in the plus-maze 90 min following the IP injection of 1.0 μg/kg CLAV, 50 or vehicle control in a volume of ca. 0.3 ml. The order of treatments was counter balanced with at least 48 hrs between injections. At the start of the experiment, the animal was placed at the end of one of the open arms. Over a five min observation period, animals were scored for the latency to enter the closed arm, time spent in the closed arm and the number of open arm entries following the first occupation of the closed arm. The study produced tables of repeated measures. The data between treatments were compared with a two-way, repeated measures ANOVA followed by Bonferroni post hoc tests. […]

[1] = Estimated fluid and brain concentrations after dosing hamsters; assay type: in vivo, hamster
Experimental: The adult male hamsters used in these studies weighed around 125 g. […] CLAV has a volume of distribution approximating the extracellular fluid volume. The extracellular water content of lean body mass is approximately 22%.
To this end, animals were treated with N-acetyl-beta-aspartyl-glutamic acid (beta-NAAG), a competitive inhibitor of NAALADase (Serval et al., 1992) and tested in the seed finding model of anxiety. The study was similar to that outlined in Section I with one notable exception. […] Beta-NAAG (FW 304) was given in a dose of 3 ng in a volume of 1 μl saline ICV. The average adult hamster brain weights ca. 1.2 g of which 22% is extracellular fluid.

rats = test: Morris water maze, cue navigation; assay type: in vivo, rat
Experimental: (§2) On the day following the last day (Day 4) of spatial navigation, animals were tested for cue navigation. In these tests, the platform was raised above water level. One hr before testing animals were treated with Mox or saline vehicle. The same animals that were treated with Mox during spatial navigation were treated with Mox for cue navigation. Animals were run through a series of two minute trials with 45 min between trials. At each trial, the platform was moved to a different quadrant. The cue navigation study was identical to the spatial navigation except the platform was visible and the testing was done over five consecutive trials done on a single day. Animals were scored for latency to find the platform, percent time spent in each quadrant, path distance and swim speed for all testing periods
as §2, with “CLAV” for “Mox”, “animals” for “animals that were”, “min” for “minute”

[2] = in vivo, cited from earlier work
[3] = 140 g hamster, IP injection of 14 μg
[4] = daily IP for seven days: CLAV 100 ng/kg, CDP 10 mg/kg

**Q.** With CO[C@@]1(NC(=O)C(C(=O)O)c2ccc(O)cc2)C(=O)N2C(C(=O)O)=C(CSc3nnnn3C)CO[C@@H]21 (stereo partly drawn) [Mox, 7-β-[2-carboxy-2-(4-hydroxyphenyl)acetamido]-7α-methoxy-3-[[(1-methyl-1H-tetrazol-5-yl)thio]methyl]-1-oxa-1-dethia-3-cephem-4-carboxylic acid] as the molecule, how does the “number of open arm entries” value (Male Wistar rats; 50 μg/kg IP, 90 min) read?
**A.** Its value is “significantly elevated”.

**Q.** What about the “time spent in the closed arm” value (Male Wistar rats; 50 μg/kg IP, 90 min) of the same molecule?
**A.** The value was “significantly reduced”.

**Q.** And the “latency to enter the closed arm” value (Male Wistar rats; 50 μg/kg IP, 90 min, five min observation)?
**A.** Its value is “significantly increased”.

**Q.** And the “time spent in the closed arm (dark)” value (Male Wistar rats; 1 mM, 2 ul into lateral ventricle, 60 min)?
**A.** Its value is “significantly (p<0.01) lower”.

**Q.** What about the “latency to enter the closed arm” value (Male Wistar rats; 1 mM, 2 ul into lateral ventricle, 60 min, 3 min observation) of the same molecule?
**A.** Its value is “significantly (p<0.05) delayed”.

**Q.** What about the “estimated CSF concentration” value [1, 3] of the same molecule?
**A.** The value was 15 ng/mL.

**Q.** And the estimated serum concentration [1, 3]?
**A.** Its estimated serum concentration is 0.1 ng/mL.

**Q.** What about the “estimated (effective minimum) concentration of moxalactam in the brain” value ([1]; following 50 μg/kg, listed as moxalactam) of the same molecule?
**A.** Its value is “about 30 nM”.

**Q.** And the path length (rats; Mox)?
**A.** The path length was “much shorter path length”.

**Q.** What about the “percentage of time spent in each quadrant” value (rats; Mox) of the same molecule?
**A.** The value was “no significant difference between treatments”.

**Q.** And the swim speed (rats; Mox)?
**A.** Its swim speed is “no significant difference”.

**Q.** And the “latency to find the platform” value (rats; Mox, trials 1, 3 and 4)?
**A.** Its value is “significantly shorter latencies”.

**Q.** And the “blood-brain barrier transport / CNS penetrability” value [2]?
**A.** Its value is “greatest penetrability into the CNS”.

**Q.** And the “blood-brain barrier transport / CNS penetrability” value ([2]; listed as Moxalactam)?
**A.** The value was “can penetrate the blood brain barrier”.

**Q.** Which open arm entries (Male Wistar rats; CLAV 1.0 μg/kg IP, 90 min) does the source give for O=C(O)[C@H]1/C(=C/CO)O[C@@H]2CC(=O)N21 [CLAV, Clavulanic acid] here?
**A.** Its open arm entries is “increased movement into the lighted open arms”.

**Q.** And the “time spent in the open arm” value (Male Wistar rats; CLAV 1.0 μg/kg IP, 90 min)?
**A.** The value was “significantly increased”.

**Q.** And the “latency to enter the dark (time in starting open light position)” value (Male Wistar rats; CLAV 1.0 μg/kg IP, 90 min, five min observation)?
**A.** Its value is “longer”.

**Q.** What about the “latency to enter the dark closed arms” value (Male Wistar rats; [4]) of the same molecule?
**A.** The value was “significantly greater”.

**Q.** What about the “time spent exposed to light in the open arms” value (Male Wistar rats; [4]) of the same molecule?
**A.** Its value is “significantly greater”.

**Q.** And the “estimated concentration in extracellular water” value ([1]; CLAV 1.25 ng in 27.5 ml of water (10 ng/kg, 125 g hamster))?
**A.** Its value is 0.045 ng/mL.

**Q.** What about the “estimated concentration in the brain” value ([1]; CLAV 10 ng/kg, CSF/plasma ratio 0.25) of the same molecule?
**A.** The value was “around 50 μM”.

**Q.** What about the “estimated concentration in extracellular water (molar)” value ([1]; CLAV 10 ng/kg, formula weight ca. 240) of the same molecule?
**A.** The value was “about 200 μM”.

**Q.** And the “distance traveled to find the platform” value (rats; CLAV)?
**A.** The value was “not significantly different”.

**Q.** What about the “latency to find the platform” value (rats; CLAV) of the same molecule?
**A.** The value was “no main effect for treatments”.

**Q.** What about the “percentage of time spent in each quadrant” value (rats; CLAV) of the same molecule?
**A.** Its value is “no significant difference between treatments”.

**Q.** And the swim rate (rats; CLAV)?
**A.** The swim rate was “no significant main effect”.

**Q.** And the “blood-brain barrier transport / CNS penetrability” value [2]?
**A.** Its value is “readily passes the blood-brain barrier”.

**Q.** What about the “blood-brain barrier transport / CNS penetrability” value ([2]; listed as Clavulanate) of the same molecule?
**A.** The value was “good blood brain barrier transport”.
